Source: patent US11440870B2, “Cannabidiolic acid esters compositions and uses thereof” (Yissum Research Development Company of the Hebrew …, priority 2017, dated 2022)

System: LiCl-induced conditioned gaping (acute nausea) in rats
Experiment: Acute nausea: LiCl-induced conditioned gaping (taste reactivity test) in rats
Assay type: in vivo, male Sprague-Dawley rats
Conditions: for LiCl-induced conditioned gaping relative to vehicle: 45 min before conditioning; for Lowest effective dose for suppression of acute nausea-induced conditioned gaping: i.p., rats (FIG. 3)
Source text: Animal procedures complied with the Canadian Council on Animal Care, and the protocols were approved by the Institutional Animal Care Committee at University of Guelph. Animal studies are reported in compliance with the ARRIVE guidelines (Kilkenny et al., 2010; McGrath and Lilley, 2015). A total of 200 näive male Sprague-Dawley rats, obtained from Charles River Laboratories (St Constant, Quebec), were used for all in vivo studies. Rats were individually housed (for acute nausea studies) or pair-housed [for anticipatory nausea and light-dark emergence studies] in home cages made of opaque white plastic (48×26×20 cm), containing bed-o-cob bedding from Harlan Laboratories, Inc. (Mississauga, Ontario), a brown paper towel, and Crinkl'Nest™ from The Andersons, Inc. (Maumee, Ohio). Additionally, in the home cage, rats were provided with a soft white paper container that was 14 cm long and 12 cm in diameter. All rats were subjected to an ambient temperature of 21° C. and a 12/12 h light-dark schedule (lights off at 07:00 h) and maintained on food (Highland Rat Chow [8640]) and water ad libitum. For the acute and anticipatory nausea studies, their body weights ranged from 263 to 329 g on the day of conditioning. For the light-dark emergence studies, their body weights ranged from 320 to 387 g on the day of test.
For the studies of acute nausea (in vivo experiment 1), rats were placed in taste reactivity (Grill and Norgren, 1978) chambers with their cannula attached to an infusion pump (Model KDS100, KD Scientific, Holliston, Mass., USA) for fluid delivery. The taste reactivity chambers were made of clear Plexiglas (22.5×26×20 cm) that sat on a table with a clear glass top. A mirror beneath the chamber at a 45° angle facilitated viewing of the ventral surface of the rat to observe orofacial responses. The conditioning chamber was in a dark room next to a 25 W light source. A video camera (Sony DCR-HC48, Henry's Cameras, Waterloo, ON, Canada) fire-wired into a computer was focused on the mirror and used to record each rat's orofacial reactions during the 2 min taste reactivity test. The video tapes were later scored using ‘The Observer’ (Noldus Information Technology Inc., Leesburg, Va., USA) software.
All rats were surgically implanted with an intraoral cannula according the procedures described by Limebeer et al. (2010). On the day of surgery, the rats were injected with an antibiotic (Derapin: […] s.c.; Pfizer Animal Health, Pfizer Canada Inc, Kirkland, Quebec, Canada) 30 min prior to being anaesthetized with isoflurane (4-5% induction, 1.5% maintenance in O2). Surgical plane anesthesia, as indicated by absence of the hind limb withdrawal reflex and defined by the Canadian Council of Animal Care, was induced before any surgery began, and was adjusted as necessary. Once sufficient anesthesia had been induced, a 2 cm^2 section of skin was shaved at the back of the neck at the level of the scapula. The skin was prepared by cleaning with soap (Bactistat; Ecolab, St. Paul, Minn., USA) and wiping with 70% isopropyl alcohol followed by 7% Betadine solution (Purdue Products L.P., Stamford, Conn., USA). Each rat was then administered a 5 mg·kg^−1 injection (i.p.) of the anti-inflammatory/analgesic drug carprofen (Rimadyl; Pfizer Canada Inc., Kirkland, Quebec, Canada). A thin-walled 15-gauge stainless steel needle was inserted into the shaved area on the neck, directed subcutaneously around the ear and brought out behind the first molar inside the mouth. A 10 cm length of Intra Medic PE90 tubing (Clay Adams Brand; Becton Dickinson and Co., Sparks, Md., USA) with an inner diameter of 0.86 mm and an outer diameter of 1.27 mm was then inserted through the needle after which the needle was removed. Betadine (10%) was applied to the puncture site and three elastic discs (2 cm^2) were placed over the exposed end of the tubing and drawn to the skin at the back of the neck for the purpose of stabilizing the cannula. […]

With `C=C(C)[C@@H]1CCC(C)=C[C@H]1c1c(O)cc(CCCCC)c(C(=O)OC)c1O` [HU-580, Cannabidiolic Acid Methyl Ester] the “Suppressive effect on acute nausea after 5-HT1A antagonist pretreatment” value (0.1 μg·kg−1 HU-580 i.p., WAY100635 0.1 mg·kg−1 15 min before) was “blocked by WAY100635”, the “LiCl-induced conditioned gaping relative to vehicle” value (0.1 μg·kg−1 i.p.) was “reduced LiCl-induced conditioned gaping behavior relative to vehicle” and the “LiCl-induced conditioned gaping relative to vehicle” value (1 μg·kg−1 i.p., P<0.05) was “reduced LiCl-induced gaping responses relative to vehicle”. The “Lowest effective dose for suppression of acute nausea-induced conditioned gaping” value was 0.1 µg/kg.

`C=C(C)[C@@H]1CCC(C)=C[C@H]1c1c(O)cc(CCCCC)c(C(=O)O)c1O` [CBDA, Cannabidiolic acid] was tested, and the “LiCl-induced conditioned gaping relative to vehicle” value (0.1 μg·kg−1 i.p.) was “subthreshold”, the “LiCl-induced conditioned gaping relative to vehicle” value (1 μg·kg−1 i.p., P<0.05) was “reduced LiCl-induced gaping responses relative to vehicle” and the “Lowest effective dose for suppression of acute nausea-induced conditioned gaping” value was 1 µg/kg.
